Laboratory results: PMC13210772, “Dual FLT3/MAPK14 Proteolysis-Targeting Chimera (PROTAC) Induces Potent Acute Myeloid Leukemia Cell Death” (Pharmaceuticals, 2026)

Tests used:
[1] = system: MOLM-13 cells; experiment: Apoptosis by flow cytometry (annexin-V/propidium iodine); assay type: cell-based, human; conditions: 72 h
Protocol: To further assess the biological relevance of these findings, we treated MV4-11 cells with the new PROTACs, included MA49 as control, and analyzed them for early (annexin-V positive) and late apoptosis (annexin-V and propidium iodine positive) by flow cytometry. Cells in late apoptosis are more severely damaged than cells in early apoptosis. […] After 72 h, all degraders evoked equal levels of apoptosis (Figure 4c). We additionally tested these degraders in MOLM-13 cells which carry FLT3-ITD and FLT3 from a patient with AML after initial myelodysplastic syndrome.
Figure 4 Biological and biochemical characterization of the FLT3 PROTACs. (a) MV4-11 cells were incubated for 24 h with 50 nM of the indicated compounds. Immunoblotting was performed for the indicated proteins and their phosphorylation (p-) or cleavage (cl.; indicated by arrows); β-actin was used to ensure equal sample loading. (b) MV4-11 cells were treated with the indicated agents and analyzed for early and late apoptosis by flow cytometry. (c) Same as in (b) but treatment for 72 h. (d) MOLM-13 cells were treated with the indicated agents and analyzed for early and late apoptosis by flow cytometry. […] Immunoblots show the expression of the indicated proteins and their phosphorylation (p-); β-actin was used to ensure equal sample loading. All immunoblots show data from at least two independent repetitions and flow cytometry analyses were conducted thrice independently; * […], ** p < 0.01, *** p < 0.001, **** p < 0.0001.

[2] = molecular target: MAPK14 (Homo sapiens, UniProt Q16539); experiment: KINOMEscan binding assay; parameters: purchased Eurofins DiscoverX Corporation; host or cells: E. coli BL21-derived (T7 phage) or HEK-293
Protocol: Kinase-tagged T7 phage strains were prepared in an E. coli host derived from the BL21 strain. E. coli were grown to log-phase and infected with T7 phage and incubated with shaking at 32 °C until lysis. The lysates were centrifuged and filtered to remove cell debris. The remaining kinases were produced in HEK-293 cells and subsequently tagged with DNA for qPCR detection. […] The liganded beads were blocked with excess biotin and washed with blocking buffer (SeaBlock (Pierce), 1% BSA, 0.05% Tween 20, 1 mM DTT) to remove unbound ligand and to reduce non-specific binding. […] The compounds were then diluted directly into the assays such that the final concentration of DMSO was 0.9%. All reactions performed in polypropylene 384-well plate. Each was a final volume of 0.02 mL. […] The kinase concentration in the eluates was measured by qPCR.

[3] = Metabolic stability in liver microsomes; conditions: for degraded after 2 h: mouse liver microsomes; for 10 min - compound remaining % / 20 min - compound remaining % / 30 min - compound remaining % / 60 min - compound remaining % / 120 min - compound remaining %: single runs A and B (Table S3)
[4] = molecular target: T1, FLT3-ITD (Homo sapiens, UniProt P36888, INS600HVDFREYEYD); experiment: FLT3-ITD degradation, immunoblot in MV4-11 cells; conditions: for inhibition at 0.05 µM: MV4-11, 24 h, read-out: % FLT3-ITD Degradation at 50 nM; for reduction/elimination of FLT3-ITD / FLT3-ITD degradation / FLT3-ITD (130 kDa) level relative to untreated cells: MV4-11 cells; for FLT3-ITD degradation / FLT3-ITD (130 kDa) level relative to untreated cells: 50 nM; for FLT3-ITD degradation: 24 h
T1 sequence (P36888 with tags, fused parts or gaps INS600HVDFREYEYD): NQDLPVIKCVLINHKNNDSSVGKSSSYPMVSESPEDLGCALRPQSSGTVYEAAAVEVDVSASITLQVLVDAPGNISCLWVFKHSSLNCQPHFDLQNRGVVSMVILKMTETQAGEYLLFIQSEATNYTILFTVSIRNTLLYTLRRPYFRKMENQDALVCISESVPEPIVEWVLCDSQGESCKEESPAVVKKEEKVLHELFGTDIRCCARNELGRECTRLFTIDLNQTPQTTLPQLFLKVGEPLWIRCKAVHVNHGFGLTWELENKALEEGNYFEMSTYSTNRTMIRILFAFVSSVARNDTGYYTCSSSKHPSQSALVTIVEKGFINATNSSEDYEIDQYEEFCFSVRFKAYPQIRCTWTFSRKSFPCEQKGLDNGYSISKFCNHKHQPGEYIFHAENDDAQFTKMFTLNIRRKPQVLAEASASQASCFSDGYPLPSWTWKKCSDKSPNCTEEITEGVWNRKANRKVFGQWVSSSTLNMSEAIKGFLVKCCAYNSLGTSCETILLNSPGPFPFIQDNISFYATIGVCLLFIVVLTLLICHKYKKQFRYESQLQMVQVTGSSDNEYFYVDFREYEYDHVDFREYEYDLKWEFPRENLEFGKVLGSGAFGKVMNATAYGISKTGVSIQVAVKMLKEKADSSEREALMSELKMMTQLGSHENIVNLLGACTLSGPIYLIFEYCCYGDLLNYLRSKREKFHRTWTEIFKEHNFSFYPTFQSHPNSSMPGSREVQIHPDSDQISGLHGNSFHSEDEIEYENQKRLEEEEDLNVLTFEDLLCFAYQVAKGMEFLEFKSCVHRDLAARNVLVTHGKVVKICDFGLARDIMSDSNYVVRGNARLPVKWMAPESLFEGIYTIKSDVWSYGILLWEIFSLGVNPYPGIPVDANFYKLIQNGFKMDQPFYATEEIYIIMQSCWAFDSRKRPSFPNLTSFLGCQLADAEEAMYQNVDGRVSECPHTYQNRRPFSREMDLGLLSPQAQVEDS

[5] = molecular target: DDR1 (Homo sapiens, UniProt Q08345); experiment: NanoBRET CELLinib128; conditions: read-out: Tracer bound
[6] = molecular target: T2, FYN (Homo sapiens, UniProt P06241); experiment: NanoBRET CELLinib128; assay type: binding; conditions: 100% no effect, 0% complete tracer displacement, read-out: Tracer bound
T2 construct: Full-length kinase ORF (Promega, Madison, WI, USA) cloned in frame with a NanoLuc-vector was transfected into HEK293T cells; host or cells: HEK293T

[7] = molecular target: T3, ABL1 (Homo sapiens, UniProt P00519); experiment: NanoBRET CELLinib128; assay type: binding; conditions: 100% no effect, 0% complete tracer displacement, read-out: Tracer bound
T3 construct: Full-length kinase ORF (Promega, Madison, WI, USA) cloned in frame with a NanoLuc-vector was transfected into HEK293T cells; host or cells: HEK293T

[8] = molecular target: CLK4 (Homo sapiens, UniProt Q9HAZ1); experiment: NanoBRET CELLinib128; conditions: read-out: Tracer bound
[9] = molecular target: EPHB4 (Homo sapiens, UniProt P54760); experiment: NanoBRET CELLinib128; conditions: read-out: Tracer bound
[10] = molecular target: GSK3A (Homo sapiens, UniProt P49840); experiment: NanoBRET CELLinib128; conditions: read-out: Tracer bound
[11] = molecular target: MAPK11 (Homo sapiens, UniProt Q15759); experiment: NanoBRET CELLinib128; conditions: read-out: Tracer bound
[12] = mouse (CD-1) liver microsomes, 25 μM

Sequence of MAPK14 (Q16539 whole entry): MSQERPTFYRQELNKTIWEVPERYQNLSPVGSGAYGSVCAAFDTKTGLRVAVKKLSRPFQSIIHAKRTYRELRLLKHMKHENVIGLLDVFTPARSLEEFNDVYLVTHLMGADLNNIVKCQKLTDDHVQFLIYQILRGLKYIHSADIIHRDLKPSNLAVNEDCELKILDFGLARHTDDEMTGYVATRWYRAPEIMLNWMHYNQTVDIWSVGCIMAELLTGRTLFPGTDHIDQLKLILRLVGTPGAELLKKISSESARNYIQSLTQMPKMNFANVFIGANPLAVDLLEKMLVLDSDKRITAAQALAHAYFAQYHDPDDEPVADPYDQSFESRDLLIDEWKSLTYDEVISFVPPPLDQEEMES
Sequence of MAPK11 (Q15759 whole entry): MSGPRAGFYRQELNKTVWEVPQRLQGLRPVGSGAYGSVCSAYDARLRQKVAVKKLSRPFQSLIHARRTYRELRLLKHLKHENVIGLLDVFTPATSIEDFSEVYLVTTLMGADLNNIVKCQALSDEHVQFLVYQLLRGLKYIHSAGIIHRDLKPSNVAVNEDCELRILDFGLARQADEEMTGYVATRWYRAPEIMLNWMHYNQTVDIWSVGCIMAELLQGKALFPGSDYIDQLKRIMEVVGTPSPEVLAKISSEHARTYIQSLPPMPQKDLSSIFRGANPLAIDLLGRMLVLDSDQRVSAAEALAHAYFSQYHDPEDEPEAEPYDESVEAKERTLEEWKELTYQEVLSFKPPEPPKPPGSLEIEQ
Sequence of GSK3A (P49840 whole entry): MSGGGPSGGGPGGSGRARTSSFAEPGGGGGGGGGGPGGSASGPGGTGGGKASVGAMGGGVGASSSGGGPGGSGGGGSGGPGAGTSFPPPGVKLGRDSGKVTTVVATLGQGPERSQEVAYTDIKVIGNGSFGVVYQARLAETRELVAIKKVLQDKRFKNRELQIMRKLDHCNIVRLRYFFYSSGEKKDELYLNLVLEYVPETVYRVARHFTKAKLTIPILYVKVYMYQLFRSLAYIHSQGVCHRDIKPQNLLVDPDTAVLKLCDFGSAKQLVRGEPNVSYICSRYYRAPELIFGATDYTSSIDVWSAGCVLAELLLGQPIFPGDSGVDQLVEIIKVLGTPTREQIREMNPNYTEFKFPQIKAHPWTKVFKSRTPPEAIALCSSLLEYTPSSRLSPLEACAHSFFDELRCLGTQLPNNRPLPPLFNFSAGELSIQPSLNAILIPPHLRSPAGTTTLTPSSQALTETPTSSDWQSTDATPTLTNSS
Sequence of DDR1 (Q08345 19-913): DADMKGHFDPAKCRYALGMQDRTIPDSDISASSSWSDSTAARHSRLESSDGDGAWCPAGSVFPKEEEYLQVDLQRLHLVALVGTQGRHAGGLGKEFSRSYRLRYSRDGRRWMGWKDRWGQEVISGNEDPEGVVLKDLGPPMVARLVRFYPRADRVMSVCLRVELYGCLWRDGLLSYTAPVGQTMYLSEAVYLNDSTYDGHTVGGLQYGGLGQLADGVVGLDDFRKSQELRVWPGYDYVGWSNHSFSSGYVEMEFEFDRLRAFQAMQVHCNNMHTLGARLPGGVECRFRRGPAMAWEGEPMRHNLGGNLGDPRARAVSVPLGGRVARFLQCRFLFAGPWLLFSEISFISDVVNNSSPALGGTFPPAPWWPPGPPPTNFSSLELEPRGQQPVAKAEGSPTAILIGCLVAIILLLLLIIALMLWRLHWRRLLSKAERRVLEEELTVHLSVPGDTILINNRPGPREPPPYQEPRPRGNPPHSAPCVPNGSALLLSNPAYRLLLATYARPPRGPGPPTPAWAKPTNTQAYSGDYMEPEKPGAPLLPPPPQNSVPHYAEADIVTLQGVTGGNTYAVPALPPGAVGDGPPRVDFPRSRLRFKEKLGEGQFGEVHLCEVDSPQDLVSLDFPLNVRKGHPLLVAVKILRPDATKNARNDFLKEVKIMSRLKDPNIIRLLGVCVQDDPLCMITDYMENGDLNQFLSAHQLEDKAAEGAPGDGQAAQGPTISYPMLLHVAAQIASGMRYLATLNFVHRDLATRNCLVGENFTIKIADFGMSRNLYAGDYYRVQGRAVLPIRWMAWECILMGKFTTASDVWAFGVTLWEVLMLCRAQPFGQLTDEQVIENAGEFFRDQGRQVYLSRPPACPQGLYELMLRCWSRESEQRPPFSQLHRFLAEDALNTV
T2 sequence (P06241 whole entry): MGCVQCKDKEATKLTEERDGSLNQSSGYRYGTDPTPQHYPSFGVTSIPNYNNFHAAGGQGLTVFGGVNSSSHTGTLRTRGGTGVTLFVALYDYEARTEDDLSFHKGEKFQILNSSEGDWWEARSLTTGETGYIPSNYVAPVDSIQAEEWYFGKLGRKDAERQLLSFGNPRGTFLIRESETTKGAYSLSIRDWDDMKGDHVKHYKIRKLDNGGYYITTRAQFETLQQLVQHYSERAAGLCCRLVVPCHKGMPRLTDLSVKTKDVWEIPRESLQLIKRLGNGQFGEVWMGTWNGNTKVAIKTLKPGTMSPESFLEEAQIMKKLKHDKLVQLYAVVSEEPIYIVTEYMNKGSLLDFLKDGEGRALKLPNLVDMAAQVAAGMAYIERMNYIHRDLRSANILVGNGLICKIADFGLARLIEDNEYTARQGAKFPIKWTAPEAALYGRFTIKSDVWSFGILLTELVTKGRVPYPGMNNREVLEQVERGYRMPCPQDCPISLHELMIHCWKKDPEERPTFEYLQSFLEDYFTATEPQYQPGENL
T3 sequence (P00519 whole entry): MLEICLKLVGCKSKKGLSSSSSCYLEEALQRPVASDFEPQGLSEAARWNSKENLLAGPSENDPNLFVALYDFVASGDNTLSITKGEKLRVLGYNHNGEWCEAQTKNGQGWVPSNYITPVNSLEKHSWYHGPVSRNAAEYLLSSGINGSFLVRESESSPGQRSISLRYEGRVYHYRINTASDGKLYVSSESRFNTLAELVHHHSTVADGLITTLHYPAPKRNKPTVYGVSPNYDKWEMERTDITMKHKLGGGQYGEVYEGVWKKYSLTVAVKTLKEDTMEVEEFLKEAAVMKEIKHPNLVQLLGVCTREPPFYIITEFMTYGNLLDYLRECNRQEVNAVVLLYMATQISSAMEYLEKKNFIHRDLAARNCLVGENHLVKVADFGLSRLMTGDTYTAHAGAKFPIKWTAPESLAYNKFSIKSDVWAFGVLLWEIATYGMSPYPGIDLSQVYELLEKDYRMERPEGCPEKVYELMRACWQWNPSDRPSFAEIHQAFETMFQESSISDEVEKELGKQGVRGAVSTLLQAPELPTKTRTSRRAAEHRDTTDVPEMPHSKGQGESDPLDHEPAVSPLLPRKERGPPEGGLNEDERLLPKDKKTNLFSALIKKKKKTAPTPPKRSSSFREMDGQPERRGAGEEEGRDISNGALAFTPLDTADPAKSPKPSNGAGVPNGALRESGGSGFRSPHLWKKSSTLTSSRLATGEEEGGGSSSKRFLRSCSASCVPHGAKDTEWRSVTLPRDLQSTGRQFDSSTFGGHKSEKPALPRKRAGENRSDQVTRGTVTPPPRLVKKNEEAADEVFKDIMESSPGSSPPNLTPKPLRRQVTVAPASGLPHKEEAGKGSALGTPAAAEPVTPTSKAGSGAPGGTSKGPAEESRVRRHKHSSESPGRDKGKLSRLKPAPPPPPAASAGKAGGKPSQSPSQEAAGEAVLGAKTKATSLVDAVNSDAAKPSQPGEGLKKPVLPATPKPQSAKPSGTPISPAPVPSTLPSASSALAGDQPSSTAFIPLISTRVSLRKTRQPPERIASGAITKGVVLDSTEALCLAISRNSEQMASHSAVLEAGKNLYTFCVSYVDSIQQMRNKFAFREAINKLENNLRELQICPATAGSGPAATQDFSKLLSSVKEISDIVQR
Sequence of CLK4 (Q9HAZ1 whole entry): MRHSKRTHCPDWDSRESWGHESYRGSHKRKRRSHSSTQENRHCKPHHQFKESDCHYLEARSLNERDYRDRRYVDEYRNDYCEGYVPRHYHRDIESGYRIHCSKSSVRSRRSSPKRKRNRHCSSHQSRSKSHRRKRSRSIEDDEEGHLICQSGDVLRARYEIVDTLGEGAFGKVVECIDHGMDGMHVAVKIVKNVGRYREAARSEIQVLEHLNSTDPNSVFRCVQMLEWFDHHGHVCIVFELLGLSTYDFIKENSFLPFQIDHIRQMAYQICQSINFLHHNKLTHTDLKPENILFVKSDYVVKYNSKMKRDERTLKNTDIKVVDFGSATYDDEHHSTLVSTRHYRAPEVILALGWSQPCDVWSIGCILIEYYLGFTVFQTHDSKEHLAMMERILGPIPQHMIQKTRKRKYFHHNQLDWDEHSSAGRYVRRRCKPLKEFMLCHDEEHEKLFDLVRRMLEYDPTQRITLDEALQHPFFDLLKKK

% MAPK- 14 Binding at 1 µM [2] [%] | 20 min—Compound Remaining % [3, 12] [%] | 30 min—Compound Remaining % [3, 12] [%] | 60 min—Compound Remaining % [3, 12] [%] | degraded after 2 h [3] [%] | inhibition at 0.05 µM [4] [%] | reduction/elimination of FLT3-ITD [4] [%] | remaining activity at 1 µM [5] [%] | remaining activity at 1 µM [6] [%] | remaining activity at 1 µM [7] [%] | remaining activity at 1 µM [8] [%] | remaining activity at 1 µM [9] [%] | remaining activity at 1 µM [10] [%] | remaining activity at 1 µM [11] [%] | FLT3-ITD degradation [4] | 10 min—Compound Remaining % [3, 12] [%] | FLT3-ITD (130 kDa) level relative to untreated cells [4] [%] | SMILES | induction of late apoptosis [1] | also measured
81 ± 0 | 52.9 ± 2.1 | 37.2 ± 0.6 | 28.8 ± 2.9 | 85.0 | 80 | 80 |  |  |  |  |  |  |  |  |  |  | Cc1ncsc1-c1ccc([C@H](C)NC(=O)[C@@H]2C[C@@H](O)CN2C(=O)[C@@H](NC(=O)CCOCCOCCOCCNC(=O)c2cc(Oc3ccc(NC(=O)Nc4cc(C(C)(C)C)on4)cc3)ccn2)C(C)(C)C)cc1 [MA49, reference compound] | most potent inducers of late apoptosis | 10 min - compound remaining % ([3]; listed as MA49_B): 71%; 20 min - compound remaining % ([3]; listed as MA49_B): 57%; 30 min - compound remaining % ([3]; listed as MA49_B): 38%; 60 min - compound remaining % ([3]; listed as MA49_B): 35%; 120 min - compound remaining % ([3]; 120 min, listed as MA49_B): 10%
90 ± 2 | 88.5 ± 1.2 | 93.9 ± 0.6 |  | 8.0 | 95 | > 95 |  |  |  |  |  |  |  | eliminate FLT3-ITD | 91.5 ± 0.4 | 5 | Cc1ncsc1-c1ccc([C@H](C)NC(=O)[C@@H]2C[C@@H](O)CN2C(=O)[C@@H](NC(=O)[C@H]2CC[C@H](C(=O)N3CCC(CCNC(=O)c4cc(Oc5ccc(NC(=O)Nc6cc(C(C)(C)C)on6)cc5)ccn4)CC3)CC2)C(C)(C)C)cc1 [MA190, 4-(4-(3-(5-(tert-Butyl)isoxazol-3-yl)ureido)phenoxy)-N-(2-(1-(trans-4-(((S)-1-((2S,4R)-4-hydroxy-2-(((S)-1-(4-(4-methylthiazol-5-yl)phenyl)ethyl)carbamoyl)pyrrolidin-1-yl)-3,3-dimethyl-1-oxobutan-2-yl)carbamoyl)cyclohexanecarbonyl)piperidin-4-yl)ethyl)picolinamide] | most potent inducers of late apoptosis | 20 min - compound remaining % ([3]; listed as MA190_B): 87%; 30 min - compound remaining % ([3]; listed as MA190_B): 93%; 120 min - compound remaining % ([3]; 120 min, listed as MA190_B): 93%
89 ± 2 | 97.0 ± 1.0 | 95.0 ± 1.2 | 91.2 ± 1.8 | 10.8 | 95 | > 95 | 85.7 | 120 | 105 | 100 | 120 | 118 | 96.2 | eliminate FLT3-ITD | 98.2 ± 0.9 | 5 | Cc1ncsc1-c1ccc([C@H](C)NC(=O)[C@@H]2C[C@@H](O)CN2C(=O)[C@@H](NC(=O)[C@H]2CC[C@H](C(=O)N3CCN(CCNC(=O)c4cc(Oc5ccc(NC(=O)Nc6cc(C(C)(C)C)on6)cc5)ccn4)CC3)CC2)C(C)(C)C)cc1 [MA191, 4-(4-(3-(5-(tert-Butyl)isoxazol-3-yl)ureido)phenoxy)-N-(2-(4-(trans-4-(((S)-1-((2S,4R)-4-hydroxy-2-(((S)-1-(4-(4-methylthiazol-5-yl)phenyl)ethyl)carbamoyl)pyrrolidin-1-yl)-3,3-dimethyl-1-oxobutan-2-yl)carbamoyl)cyclohexanecarbonyl)piperazin-1-yl)ethyl)picolinamide] | most potent inducers of late apoptosis | 120 min—Compound Remaining % ([3]; mouse (CD-1) liver microsomes, 25 μM, 120 min): 89.2 ± 1.0%; 10 min - compound remaining % ([3]; listed as MA191_B): 97%; 20 min - compound remaining % ([3]; listed as MA191_B): 98%; 60 min - compound remaining % ([3]; listed as MA191_B): 89%; 120 min - compound remaining % ([3]; 120 min, listed as MA191_B): 88%

SMILES | % MAPK- 14 Binding at 1 µM [2] [%] | 20 min—Compound Remaining % [3, 12] [%] | 30 min—Compound Remaining % [3, 12] [%] | 60 min—Compound Remaining % [3, 12] [%] | degraded after 2 h [3] [%] | inhibition at 0.05 µM [4] [%] | reduction/elimination of FLT3-ITD [4] [%] | remaining activity at 1 µM [5] [%] | remaining activity at 1 µM [6] [%] | remaining activity at 1 µM [7] [%] | remaining activity at 1 µM [8] [%] | remaining activity at 1 µM [9] [%] | remaining activity at 1 µM [10] [%] | remaining activity at 1 µM [11] [%] | FLT3-ITD degradation [4] | 10 min—Compound Remaining % [3, 12] [%] | FLT3-ITD (130 kDa) level relative to untreated cells [4] [%] | induction of late apoptosis [1] | also measured
CNC(=O)c1cc(Oc2ccc(NC(=O)Nc3cc(C(C)(C)C)on3)cc2)ccn1 [MA68, reference compound] |  |  |  |  |  |  |  | 4 | 114 | 71.8 | 93.8 | 3.8 | 95.9 | 24 | but not their underlying kinase inhibitor MA68, eliminate FLT3-ITD |  |  |  | 
